This note sets out measurements from patent publication US20240181000A1, “LGG-DERIVED PEPTIDES AND METHODS OF USE THEREOF” (Ohio State Innovation Foundation, priority 2021, published 2024).

For orientation: MIC means the smallest concentration in the dilution series that meets the test's criterion for growth inhibition. Read a low MIC as inhibition by little substance. A word on the MIC50: it is the lowest concentration that inhibits either 50% of growth or 50% of the strains tested, depending on the study. Lower therefore signals higher susceptibility.

One experiment concerns Biofilm embedded SE. Description: MBEC Assay. To be noted: at MICs; untreated 6.77 ± 0.02. In kind it is cell-based, Salmonella enterica. The protocol:
Peptides effect against biofilm embedded Salmonella: To analyze the ability of the peptides (P1, P2, and P4) to retain their inhibitory characteristics against biofilm protected Salmonella, Innovotech's MBEC Assay® (Innovotech Inc., AB, Canada) was conducted as previously detailed. Initially, 150 μL of 5×10^7 CFU/mL adjusted ST or SE suspension in LB media was aliquoted into the wells of MBEC inoculator plates containing polystyrene pegs and incubated for 36 h on a rocker platform at 37° C. to allow the biofilm formation. After biofilm formation, the pegs were washed to remove loosely adherent planktonic bacteria and transferred to a new 96-well plate containing peptides at MICs, with relevant controls, in 200 μL 25% LB media. The diluted LB media was used because it allows for slow bacterial growth to promote biofilm formation due to limited nutrients. The plate was incubated for 18 h at 37° C. with rotation at 150 rpm. Sterile media and DMSO were used as controls. Following incubation, the MICs of peptides in challenge plate were recorded. The pegs were transferred to new 96-well plate containing PBS and sonicated for 30 minutes to disrupt the biofilm. The sonicated suspensions were then ten-fold serially diluted and plated on LB agar plates to enumerate the biofilm protected bacteria and determine the minimum biofilm eradication concentration (MBEC) of peptides. Three independent experiments were conducted to ensure accuracy.

Experiment [1] deals with ST. In kind it is in vivo, chickens. The note with it: for Reduction of percent of birds positive for ST in the liver: 50 mg/kg twice daily. The protocol: Efficacy of peptides in chickens: To assess the efficacy of peptides against ST in chickens, one-day-old specific pathogen free (SPF) layer chickens from a Salmonella free flock at The Ohio State University were obtained and provided with feed and water ad libitum. Chickens (n=10/group) were treated with P1, P2, or P4 at 50 mg/kg body weight twice-daily doses. Peptides were dissolved in water to reach final concentration of 50 mg/kg and orally administered from day 1 to day 7. Early intestinal colonization is important for poultry health and thus is why peptide treatment was begun at day 1. Birds were challenged with 10^4 CFU of nalidixic acid resistant ST on day 3. At day 10 [7 days post infection (dpi)] chickens were euthanized, and the cecum, liver, and spleen were collected to determine the peptide's ability to reduce ST infection. The cecum was suspended in PBS, homogenized, ten-fold serially diluted, and plated on XLT4 agar plates supplemented with 50 μg/ml nalidixic acid and incubated for 24 h at 37° C. The liver and spleen were individually suspended in PBS and the undiluted homogenized suspension was plated directly and incubated for 24 h at 37° C. One milliliter of the undiluted homogenized liver and spleen was enriched in 9 ml of tetrathionate broth (TTB) for 24 h at 37° C. After incubation they were plated as described above to enumerate ST in each tissue. The body weights of chickens were measured on the day of necropsy (day 10). An untreated positive control group (PC: infected but untreated) and a negative control group (NC: non infected and non-treated) were included in the study. A Mann-Whitney test was used to determine statistical significance (P<0.05) of treatment on ST load in cecum and on body weight.

For another experiment, the system named is APEC O78. Format: cell-based, E. coli. The protocol:
Anti-APEC activity determination: The anti-APEC activity of peptides was determined in LB broth following CLSI guidelines. Briefly, overnight grown APEC O78 was adjusted to 5×10^5 CFU/mL concentration in fresh LB media. One-hundred microliters of APEC suspension was aliquoted into the wells of the 96-well plate. Peptides were added to the wells at 6 mM and 12 mM concentrations and incubated at 37° C. in TECAN Sunrise™ absorbance microplate reader with kinetic absorbance measurement set at every 30 mins for 12 h. Sterile media and DMSO (solvent) were used as controls. The growth inhibitory activity of the peptides against APEC was calculated using the formula: (OD600 DMSO treated well−OD600 peptide treated well)/OD600 DMSO treated well×100%.
The minimum inhibitory concentration (MIC) was determined for selected peptides (P1, P2, P3, and P4) using similar assay as above. Peptides were added to the wells of the 96-well plate at 6 mM, 9 mM, 12 mM, 15 mM, and 18 mM concentrations. The peptide concentration at which there is no visible APEC growth (no OD increase) was determined as MIC. Two independent experiments were conducted.
Arginine and lysine substituted peptide analogues: The non-essential amino acid residues identified in each peptide were substituted with arginine/lysine to test whether these substitutions enhance the anti-APEC activity of peptides. The MICs of arginine and lysine substituted peptide analogues ([…] (SEQ ID NO:37), […] (SEQ ID NO:38), […] (SEQ ID NO:39), KDENK (SEQ ID NO:41), PDEKK (SEQ ID NO:42), KDEKK (SEQ ID NO:43), KHTAPK (SEQ ID NO:45), VKTAPK (SEQ ID NO:46), VHTKPK (SEQ ID NO:47), and KKTKPK (SEQ ID NO:48)) were determined as above and compared with original peptides.

For experiment [2], the system named is ST. Description: Alanine scanning SAR, anti-Salmonella activity. Format: cell-based, Salmonella enterica. The protocol: Relative Importance was calculated using formula: (percent growth in analogue-percent growth in original peptide)/(percent growth in DMSO-treated control-percent growth in original peptide)×100.
Structural-activity relationship (SAR) study: Structure activity relationship analysis was used to better determine the important amino acids required for Anti-Salmonella activity of P1 and P2. Alanine scanning libraries of P1 and P2 were synthesized from Genscript (Table 28; (www.genscript.com/alanine_scanning.html) and tested for inhibitory activity as described above. Relative importance [(percent growth in analogue-percent growth in original peptide)/(percent growth in DMSO-treated control-percent growth in original peptide)×100] was used to identify crucial amino acids of each amino acid residue of the peptide. Two independent experiments were conducted to ensure accuracy.

The next experiment concerns ST membrane. In words: Transmission electron microscopy. The note with it: 10×MIC, 3 h. Format: cell-based, Salmonella enterica. The protocol:
ST was treated with 10× peptide MIC and incubated for 3 h.
Transmission electron microscopy: To further visually analyze the inhibitory effects of P1 and P2 on ST, transmission electron microscopy (TEM) was performed as described previously. […] After which, cells were fixed overnight with 3% glutaraldehyde and 2% paraformaldehyde at room temperature. Cells were then washed and postfixed with 1% osmium tetroxide (OsO4). The washed cells were then dehydrated, with graded ethanol, and embedded with Embed 812 kit (Electron Microscopy Sciences, Pa). Ultrathin (70 nm) sections were prepared on formvar-carbon coated grids and stained with uranyl acetate and lead citrate. Untreated ST was used as a control. TEM was conducted at MCIC using the Hitachi H-7500 microscope.

Where two headings read alike, the source gives them in different places. No end group written: not given here.

For the substance MLNERVK [Peptide P4, MLNERVK], in the experiment with Biofilm embedded SE, the “Biofilm embedded SE” value stood at 0.00 ± 0.00 Log CFU/mL. In the experiment with ST [1], the “Reduction of percent of birds positive for ST in the liver” value was 30%. Moreover, in the experiment with APEC O78, the “MIC” value was above 18 mM and the “MIC50” value was 20.0 mM.

With PDENK [Peptide P2, PDENK], in the experiment with Biofilm embedded SE, the “Biofilm embedded SE” value was 0.00 ± 0.00 Log CFU/mL. Also, in the experiment with ST [1], the “Reduction of percent of birds positive for ST in the liver” value came to 30%. The “Reduction of ST colonization in the cecum” value in the experiment with ST [1] (50 mg/kg twice daily 7 days, day 10 (7 dpi)) is 1.8 logs. Moreover, in the experiment on ST [2], the “Relative importance of Asparagine in P2” value is on record as 35%, the “Relative importance of Aspartate in P2” value is 82%, the “Relative importance of Proline in P2” value is listed as “zero relative importance” and the “Relative importance of glutamic acid in P2” value is 77%. Further, the “Relative importance of lysine in P2” value in the experiment on ST [2] amounted to 32%. Also, in the experiment with APEC O78, the “MIC50” value stood at 9.5 mM. For the same substance, the “MIC” value against APEC O78 (100% APEC growth inhibition) was found to be 12 mM. For the same substance, the “ST membrane in TEM” value with ST membrane is “disruption of the membrane characterized by sloughed or flaccid appearance”.
